Experimental data from US11472844B2, “Peptidomimetics, method of synthesis and uses thereof” (priority 2017, dated 2022).
Entries after “also recorded” stand apart in the source; their conditions may differ. *: point of attachment. X1 = CC[N+]1=C(/C=C/C=C/C=C2N(CCCCCC(=O)NCCN3C(=O)CC(*)C3=O)c3ccc(S(=O)(=O)O)cc3C2(C)C)C(C)(C)c2cc(S(=O)(=O)[O-])ccc21

Legend:
human colonic mucus = test: Fluorescent labelling of human colonic mucus layer; assay type: binding; conditions: 1 μg/mL; listed as MUB40#1-Cy5
Protocol: (§1) Colon explant surgical collection. In summary, human colon segments (ascending, descending, and sigmoid colon) were obtained from fully informed patients undergoing surgery for colon carcinoma and were analyzed anonymously. Patient written consent was obtained, according to the French bioethics law. None of the patients had undergone radiotherapy or chemotherapy. According to the pathologist's examination rules for the longitudinally bisected colon, a healthy segment of tissue, which was distant from the tumor region and devoid of metastatic cells, was removed. Tissues were processed according to the French Government guidelines for research on human tissues and the French Bioethics Act with the authorization no RBM 2009-50.
Fixation and staining procedures. For microscopy studies, purified or cultured cells and polymerized lactoferrin were resuspended onto 24-well plates containing 12 mm coverslips in RMPI 1640+10 mM Hepes (when cultured in the autologous plasma) and centrifuged at 300×g for 10 min. Culture media were removed and cells were fixed in 4% Paraformaldehyde (PFA) for two hours. Fixed cells were washed three times in PBS+0.1% saponin (Sigma-Aldrich), prior immunolabeling with primary antibodies in the same buffer for 1 hour (Triton 0.1% can alternatively be used for cell permeabilization). After three additional washes in PBS+0.1% saponin, secondary antibodies and fluorescent markers were incubated for one hour. […]
(§2) Antibodies, fluorescent markers. For immunofluorescence assay, lactoferrin was detected with a mouse anti-lactoferrin primary monoclonal antibody (Hycult biotech, clone 265-1K1, 1:50 dilution) and an anti-mouse-FITC conjugated secondary antibody (1:1000). Nuclei were detected with DAPI (Life Technologies), Lyophilized MUB40 peptides (MUB40#1 (SEQ ID NO: 3)-Cy5, MUB40#2 (SEQ ID NO: 4)-Cy5, MUB40#3 (SEQ ID NO: 5)-Cy5, MUB40#4 (SEQ ID NO: 6)-Cy5, MUB40#1 (SEQ ID NO: 3)-Dylight, RI-MUB40 (SEQ ID NO: 2)-Cy5, and RI-MUB40 (SEQ ID NO: 2)-Biotin) were solubilized in a phosphate buffer pH8 at a 1 mg/mL concentration and used at a 1:1000 dilution. […]

[1] = system: Colonic goblet cell granules; test: Fluorescent labelling of colonic goblet cell granules on fixed slides; assay type: cell-based, human; conditions: 1 μg/mL
Protocol: as §1, §2

[2] = system: human neutrophil granules; test: Fluorescent labelling of fixed purified human neutrophils; assay type: cell-based; conditions: 1 μg/mL
Protocol: Fixation and staining procedures. For microscopy studies, purified or cultured cells and polymerized lactoferrin were resuspended onto 24-well plates containing 12 mm coverslips in RMPI 1640+10 mM Hepes (when cultured in the autologous plasma) and centrifuged at 300×g for 10 min. Culture media were removed and cells were fixed in 4% Paraformaldehyde (PFA) for two hours. Fixed cells were washed three times in PBS+0.1% saponin (Sigma-Aldrich), prior immunolabeling with primary antibodies in the same buffer for 1 hour (Triton 0.1% can alternatively be used for cell permeabilization). After three additional washes in PBS+0.1% saponin, secondary antibodies and fluorescent markers were incubated for one hour. Coverslips were washed three time in PBS+0.1% saponin, three times in PBS, and three times in deionized H2O and mounted with prolong gold^tm mounting media.
(§3) Antibodies, fluorescent markers. For immunofluorescence assay, lactoferrin was detected with a mouse anti-lactoferrin primary monoclonal antibody (Hycult biotech, clone 265-1K1, 1:50 dilution) and an anti-mouse-FITC conjugated secondary antibody (1:1000). Nuclei were detected with DAPI (Life Technologies), Lyophilized MUB40 peptides (MUB40#1 (SEQ ID NO: 3)-Cy5, MUB40#2 (SEQ ID NO: 4)-Cy5, MUB40#3 (SEQ ID NO: 5)-Cy5, MUB40#4 (SEQ ID NO: 6)-Cy5, MUB40#1 (SEQ ID NO: 3)-Dylight, RI-MUB40 (SEQ ID NO: 2)-Cy5, and RI-MUB40 (SEQ ID NO: 2)-Biotin) were solubilized in a phosphate buffer pH8 at a 1 mg/mL concentration and used at a 1:1000 dilution. For PBMC staining CD19-APC (B lymphocytes), CD3-APC (T lymphocytes), and CD14-PercP (monocytes, macrophages) (BD Bioscience) were used at a 1:1000 dilution together with Dapi (1:1000) and MUB40-Cy5 (1 mg/mL). Actin was stained with Phalloidin-Rhodamine red X (RRX) (Jackson Immunoresearch Antibodies) used at a 1:1000 final dilution.
(§4) Polymorphonuclear neutrophils purification. Human polymorphonuclear neutrophils were purified as described previously (Monceaux et al. 2016). Briefly, plasma was removed by centrifugation (450×g, 15 min); blood cells were resuspended in 0.9% NaCl solution supplemented with 0.72% Dextran. After red blood cells sedimentation, white blood cells were pelleted and further separated on a two layer Percoll (GE Healthcare) (51%−42%) by centrifugation (at 240×g, 20 min). PBMC (top layer) were isolated from polymorphonuclear neutrophils (bottom layer). Red blood cells were removed from the latter fraction using CD235a (glycophorin) microbeads (negative selection) (Miltenyi Biotec). PBMCs and polymorphonuclear neutrophils were resuspended in the autologous plasma. Guinea pig and mouse polymorphonuclear neutrophils were purified with the same procedure.
Confocal microscopy. […]

[3] = system: Peripheral blood mononuclear cells (PBMC); test: Fluorescent labelling of PBMC; assay type: cell-based, human; conditions: PBMC fixed in PFA 3%
Text: as §3
Polymorphonuclear neutrophils purification. Human polymorphonuclear neutrophils were purified as described previously (Monceaux et al. 2016). Briefly, plasma was removed by centrifugation (450×g, 15 min); blood cells were resuspended in 0.9% NaCl solution supplemented with 0.72% Dextran. […]

[4] = system: mouse circulating neutrophils; test: Labelling of fixed mouse neutrophils; assay type: cell-based
Protocol: as §4

[5] = molecular target: T1, human purified lactoferrin (Homo sapiens, UniProt P02788); test: Lactoferrin polymers immunofluorescence labelling; assay type: binding; conditions: PNGase treatment; listed as MUB40-Cy5
T1 construct: purchased Sigma-Aldrich L1294
Protocol: Lactoferrin polymerization. Human purified lactoferrin (ref: L1294, Sigma-Aldrich) was resuspended in deionized H2O (35 μg/mL). Lactoferrin was incubated in RPMI+10 mM Hepes supplemented with 10 mM FeCl3, at indicated concentrations (0.35 or 3.5 μg/mL) onto 24-well plates containing 12 mm coverslips overnight at 37° C., adapted from similar lactoferrin polymerization experiments performed in iron saturated phosphate buffer (Mantel et al. 1994).
Lactoferrin deglycolysation. About 10 μg of human purified lactoferrin (ref: L1294, Sigma-Aldrich) was treated by Peptide-N-Glycosidase F (PNGaseF, New England Biolabs, Ipswich Mass., USA) for N-deglycosylation. Protein was treated exactly as described in manufacturer protocol. Twelve unit of PNGase F were added for 4 h at 37° C. for the removal of N-glycosylation.
Lactoferrin polymers interaction with MUB40-Cy5. Lactoferrin polymers were centrifuged at 2000 rpm for 10 min and fixed in Paraformaldehyde (PFA) 4% for one hour. Lactoferrin polymers were immunolabeled in PBS+0.1% saponin (Sigma-Aldrich) with a mouse anti-lactoferrin primary monoclonal antibody (Hycult biotech, clone 265-1K1, 1:50 dilution) and an anti-mouse-FITC conjugated secondary antibody (1:1000), together with MUB40-Cy5 (SEQ ID NO: 3) (1 μg/mL). Slides were washed three times in PBS and three times in deionized H2O and mounted with prolong gold^tm mounting media.

T1 sequence (P02788 20-710): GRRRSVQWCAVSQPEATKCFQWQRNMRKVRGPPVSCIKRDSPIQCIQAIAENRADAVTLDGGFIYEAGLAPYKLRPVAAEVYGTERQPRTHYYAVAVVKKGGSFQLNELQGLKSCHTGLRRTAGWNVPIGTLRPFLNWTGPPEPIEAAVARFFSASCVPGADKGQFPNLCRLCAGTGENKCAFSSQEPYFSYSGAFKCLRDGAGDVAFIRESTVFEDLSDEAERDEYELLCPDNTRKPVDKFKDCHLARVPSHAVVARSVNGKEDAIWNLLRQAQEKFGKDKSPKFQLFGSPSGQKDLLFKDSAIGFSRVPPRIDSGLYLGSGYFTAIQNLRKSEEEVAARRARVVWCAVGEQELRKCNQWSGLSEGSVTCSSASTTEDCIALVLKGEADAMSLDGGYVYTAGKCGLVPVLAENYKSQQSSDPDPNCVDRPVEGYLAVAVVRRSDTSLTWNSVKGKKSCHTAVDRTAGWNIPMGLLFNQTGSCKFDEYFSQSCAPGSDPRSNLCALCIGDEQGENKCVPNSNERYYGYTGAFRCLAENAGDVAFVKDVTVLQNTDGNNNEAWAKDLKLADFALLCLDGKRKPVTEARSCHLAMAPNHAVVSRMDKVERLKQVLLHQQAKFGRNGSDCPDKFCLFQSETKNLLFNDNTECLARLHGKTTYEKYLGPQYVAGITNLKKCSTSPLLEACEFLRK

“Ac-C(X1)TAEGIKKFEGDGYELFKDNFPAGEKFDNDDTNDQFYTVIF-NH2 [Cy5-MUB40#1]” was tested, and the “labelling of / binding to human colonic mucus” value (human colonic mucus) was “labelled; also recorded: conserved the ability to bind to and fluorescently label the human colonic mucus”, the “labelling of colonic goblet cell granules” value [1] was “labelled” and the “labelling of human neutrophil granules” value ([2]; listed as MUB40#1-Cy5) was “granular staining”. The “labelling of human neutrophil granules” value ([2]; listed as MUB40-Cy5) was “specifically labeled”, the “staining of CD3+, CD14+ and CD19+ cells” value [3] was “not stained” and the labelling of neutrophils [4] was “efficiently labeled”. For the same substance, the “labelling of deglycosylated lactoferrin” value [5] was “no longer labelled; also recorded: abolished”.
